Experimental data taken from patent US20250235429A1, “TREATMENT OF DISEASES VIA ADMINISTRATION OF BUNTANETAP AND AN ANTIDIABETIC AGENT” (ANNOVIS BIO, INC., priority 2024, published 2025).

How the values were obtained:
[1] = in vivo; cited from earlier work
[2] = test system: hippocampal slices APP/PS1 transgenic mice; experiment: Electrophysiological study: long-term potentiation (LTP) in hippocampal slices; type: in vivo
Method: (§1) Animals: Heterozygous double transgenic mice expressing both human APP (K670N:M671L) and human PS1 (M146L) (line 6.2) and their wild-type non-transgenic littermates, both males and females, were used for these experiments. They were obtained by a breeding colony maintained at the animal facility of Columbia University. They were genotyped through PCR on tail samples. Animals were injected i.p. from the age of […] for 1 month prior to starting behavioral assessment which lasted for 2 weeks during which treatment continued. Behavioral assessment examined spatial and associative memory. Finally, mice were sacrificed for electrophysiological assessment of synaptic function.
(§2) Mice were coded to blind investigators with respect to genotype and treatment. Results were expressed with Standard Error of the Mean (SEM). Level of significance was set for p<0.05. Results were analyzed by ANOVA analysis with post-hoc correction with the combination or genotype as main effect. Experiments were designed in a balanced fashion, and mice were trained and tested at each of the different conditions in 3 or 4 separate experiments.
Mice were i.p. injected with the drug from the age of 8 weeks prior to plaque appearance until euthanasia for collecting slices at the age of 14-16 weeks. The treatment with Buntanetap was daily, whereas the treatment with dulaglutide was twice a week.
Electrophysiological analysis was performed on 400 μm hippocampal slices, cut with a tissue chopper and maintained in an interface chamber at 29° C. for 90 min prior to recording. Briefly, CA1 fEPSPs were recorded by placing both the stimulating and the recording electrodes in CA1 stratum radiatum. Basal synaptic transmission was assayed, either by plotting the stimulus voltages against slopes of fEPSP, or by plotting the peak amplitude of the fiber volley against the slope of the fEPSP. For LTP experiments, a 15 min baseline was recorded every min at an intensity that evokes a response ˜35% of the maximum evoked response. LTP was induced using θ-burst stimulation (4 pulses at 100 Hz, with the bursts repeated at 5 Hz and each tetanus including 3 ten-burst trains separated by 15 see). Data was subjected to statistical analyses to determine the effects of combination on inhibiting synaptic dysfunction.

APP/PS1 transgenic mice [3] = experiment: Contextual fear conditioning (FC), associative memory; type: in vivo; conditions: Buntanetap 1 mg/Kg and/or dulaglutide 0.1 mg/Kg
Method: as §1
Mice were coded to blind investigators with respect to genotype and treatment. Results were expressed with Standard Error of the Mean (SEM). […] Results were analyzed by ANOVA analysis with post-hoc correction with the combination or genotype as main effect. […]
The combination effect on associative memory was assessed through fear conditioning (FC). […] Freezing behavior, defined as the absence of movements except for that needed for breathing, was scored using Noldus software. Contextual fear learning, a type of memory for which hippocampal function is indispensable, was evaluated 24 hrs after training by measuring freezing responses for 5 min in the same chamber where the mice have been trained. […]

APP/PS1 transgenic mice [4] = experiment: 2-day radial arm water maze (RAWM), spatial memory; type: in vivo
Method: as §1, §2
Mice were i.p. injected with the drug from the age of 8 weeks prior to plaque appearance until behavioral assessment that started at 12 weeks of age and lasted for 2 weeks.
Spatial memory was studied with the 2-day radial arm water maze (RAWM) test. The task is a hybrid of the Morris Water Maze (MWM) and the radial arm land maze. The motivation for the animals is immersion in water. The mouse needs to swim in 6 alleys (arms) radiating from a central area until it finds a hidden (submerged) platform at the end of one of the arms, based on visual cues placed in the room. In the old RAWM version of the task, the goal arm varies from day to day, requiring 21 days of training in wild-type mice to reach the learning criterion. In the new version of the task, the goal arm is kept constant for all trials, with a different start arm on successive trials, such that the learning criterion will be reached in 2 days. The first day of the protocol was a training day. Mice were trained to identify the platform location by alternating between a visible and a hidden platform in a goal arm. The final 3 trials on day 1 and all 15 trials on day 2 used a hidden escape platform to force mice to use spatial cues to identify the location of the goal arm. To avoid learning limitations imposed by exhausting practice and to avoid fatigue that may result from consecutive trials, spaced practice training was established by running the mice in cohorts of 4 and alternating different cohorts through the 15 training trials over 3 hours testing periods each day. On day 1, a visible platform was laced in a goal location. Mouse 1 of cohort 1 was gently placed in the pool near the perimeter of the wall of the first start arm (specified on a score sheet) and facing the center of the pool. The number of incorrect arm entries (entries in arms with no platform) was counted. If the animal enters the incorrect arm it was gently pulled back to the start arm. Each trial lasted up to 1 min. Failure to select an arm after 15 sec was counted as an error and the mouse was returned to the start arm. After 1 min, if the platform had not been located, the mouse was guided gently through the water by placing a hand behind it to direct it towards the platform. The mouse rested on the platform for 15 sec. After completing the trial, the mouse was removed from the pool, gently towel dried and placed back into its cage under a heat lamp. The goal platform location was different for each mouse. […] After each mouse from cohort 1 completed six alternating trials between visible and hidden platforms, the mice were left to rest under a heating source, and mice from the second cohort were tested in the same way.

[5] = APP/PS1 mice, Buntanetap 1 mg/Kg and/or dulaglutide 0.1 mg/Kg

Row | Substance | onset [1] | peak concentration occurs after administration [1] [h] | % Improvement (Residual Potential) ([2]; APP/PS1, dulaglutide 0.1 mg/kg) [%] | Residual Potential (mean) ([2]; APP/PS1, dulaglutide 0.1 mg/kg i.p. twice a week) | % Improvement (Residual Potential) ([2]; APP/PS1, dulaglutide 0.3 mg/kg) [%] | Residual Potential (mean) ([2]; APP/PS1, dulaglutide 0.3 mg/kg i.p. twice a week) | % Improvement (Residual Potential) ([2]; APP/PS1, dulaglutide 0.6 mg/kg) [%] | Residual Potential (mean) ([2]; APP/PS1, dulaglutide 0.6 mg/kg i.p. twice a week) | impairment of synaptic plasticity measured through Long-term potentiation (LTP) [2, 5] | impairment of associative memory measured through contextual fear conditioning (FC) (APP/PS1 transgenic mice [3]) | % Improvement (RAWM errors) (APP/PS1 transgenic mice [4]; APP/PS1, dulaglutide 0.1 mg/kg) [%] | Meran Number of Errors (RAWM) (APP/PS1 transgenic mice [4]; APP/PS1, dulaglutide 0.1 mg/kg) | % Improvement (RAWM errors) (APP/PS1 transgenic mice [4]; APP/PS1, dulaglutide 0.3 mg/kg) [%] | Meran Number of Errors (RAWM) (APP/PS1 transgenic mice [4]; APP/PS1, dulaglutide 0.3 mg/kg) | % Improvement (RAWM errors) (APP/PS1 transgenic mice [4]; APP/PS1, dulaglutide 0.6 mg/kg) [%] | Meran Number of Errors (RAWM) (APP/PS1 transgenic mice [4]; APP/PS1, dulaglutide 0.6 mg/kg) | impairment of short-term spatial memory measured through the 2-day radial arm water maze (RAWM) (APP/PS1 transgenic mice [4]; [5])
1 | Insulin detemir | about 1 hours | 3 to 14 |  |  |  |  |  |  |  |  |  |  |  |  |  |  | 
2 | Insulin glulisine: insulin commercially available as Apidra® | 5 to 15 min |  |  |  |  |  |  |  |  |  |  |  |  |  |  |  | 
3 | dulaglutide: GLP-1 agonist, commercially available as Trulicity® |  |  | 21.4 | 155.52 | 32.3 | 164.68 | 71.1 | 197.26 | did not ameliorate | did not ameliorate | 23.5 | 2.9 | 47.1 | 2.5 | 88.2 | 1.8 | did not ameliorate
